Experimental findings from patent US5677274A (The Government of the United States as represented by the …, priority 1993, dated 1997) are described below.

Where only a bound is given, the exact number is not on record here.

This experiment deals with CHO cells. The format is cell-based, Chinese Hamster.

For the compound `CC[C@@]1([C@@H]2O[C@@H]([C@H]3O[C@@](O)(CO)[C@H](C)C[C@@H]3C)C[C@@H]2C)CC[C@H]([C@]2(C)CC[C@]3(C[C@H](O)[C@@H](C)[C@@H]([C@@H](C)[C@@H](OC)[C@H](C)C(=O)O)O3)O2)O1` [monensin], the “decrease in potency of FP33” value was greater than 100 fold and the “protection against the other three fusion proteins” value is “exceeded 20 fold”.
